Assay results as given in US20250152580A1, “METHODS FOR TREATING IMMUNE DISEASES” (Ascentage Pharma (Suzhou) co., Ltd., priority 2022, published 2025).
Entries after “also recorded” stand apart in the source; their conditions may differ.

What was measured:
Format in all cases: in vivo
[1] = tested on: IMQ induced psoriasis model; experiment: IMQ induced psoriasis model in Balb/c mice; conditions: Cpd. 4 100 mg/kg po qd day 0-6; tofacitinib 30 mg/kg po bid; compared with Vehicle
From the text: Imiquimod (IMQ) is a ligand for TLRs (Toll-like receptors) of immune cells (including macrophages, monocytes and plasmacytoid dendritic cells), and therefore contributes to strong activation of the immune system.
Female Balb/c mice (7-8 weeks old) were obtained from B&K Universal Animal Co. Ltd. Animals were housed and handled in a temperature-controlled environment with a 12-h light/12-h dark cycle. A total of 36 mice were assigned to 4 groups by randomization based on body weight (6 mice in normal control group and 10 mice in other 3 groups).
At the beginning of the study on day 0, five groups were administered a daily topical dose of 80 mg of a cream preparation containing 5% IMQ on their hair-free backs to establish a model of IMQ-induced psoriasis for seven consecutive days. The G1 normal control group received appropriate vaseline.
Mice in Group 1 and Group 2 were treated with vehicle for 7 days (po, qd, from day 0 to day 6). Mice in Group 3 were treated with 100 mg/kg Cpd. 4 for 7 days (po, qd, from day 0 to day 6). Mice in Group 4 were treated with 30 mg/kg tofacitinib for 7 days (po, bid, from day 0 to day 6). The protocols and procedures involving the care and use of animals were approved by the Institutional Animal Care and Use Committee (IACUC) at KCI (Suzhou, China).
The severity of skin inflammation was monitored and graded using a modified human scoring system Psoriasis Area Severity Index (PASI). Scaling, thickness, and erythema were scored separately on a scale from 0 to 4:0, none; 1, slight; 2, moderate; 3, marked; and 4, very marked. The total score denotes severity of inflammation. Ear thickness of mice was measured every day from day 0 to day 7.
Ear thickness of mice was measured every day from day 0 to day 7. […] Compared with G1 normal control group, after IMQ treatment, ear swelling was observed indicated by increased ear thickness in G2 group reaching the maximal ear thickness to 0.40±0.02 mm on day 7. Cpd.

[2] = tested on: TNBS induced inflammatory bowel disease (IBD) model; experiment: TNBS induced inflammatory bowel disease (IBD) model in Balb/c mice; conditions: 50 mg/kg po qd, mesalamine day −1 to day 6, compared with Vehicle
From the text: There are two kinds of IBD: Crohn's disease (CD) and ulcerative colitis (UC). TNBS administration results in a preclinical mouse model replicating clinical Crohn's disease.
Female Balb/c mice (8 weeks old) were obtained from Beijing Vital River Laboratory Animal Co. Ltd. Animals were housed and handled in a temperature-controlled environment with a 12-h light/12-h dark cycle. A total of 50 mice were assigned to 5 groups by randomization based on body weight.
On Day 0, the mice weighing 18-20 g were anesthetized with […] (Easycheck, M2910). The mice were further intra-rectally injected 100 μL 1.5% TNBS solution (final concentration 50% ethanol) in the vehicle group and other treatment groups. For the Sham group, the mice were intra-rectally injected with 50% ethanol at the same volume.
Mice in Group 1 and Group 2 were treated with vehicle for 8 days (po, qd, from day −1 to day 6). Mice in Group 3 were treated with 50 mg/kg Cpd. 4 for 8 days (preventive regimen, po, qd, from day −1 to day 6). Mice in Group 4 were treated with 50 mg/kg Cpd. 4 for 6 days (therapeutic regimen, po, qd, from day 1 to day 6). 50 mg/kg Mesalamine was used as positive control which was orally administered to mice in Group 5 for 8 days (preventive regimen, qd, from day −1 to day 6). The protocols and procedures involving the care and use of animals were approved by the Institutional Animal Care and Use Committee (IACUC) at WuxiApptec (Shanghai, China).
Clinical signs of IBD were assessed every day based on the score of disease activity index (DAI) which was evaluated from three parameters using a scoring system from 0 to 4: stool consistency (0, normal stool; 1, soft but still formed stool; 2, soft and not formed stool; 3, very soft and wet stool; 4, watery diarrhea), bleeding score (0, negative hemoccult; 1, weak positive hemoccult; 2, positive hemoccult; 3, blood trace in stool visible; 4, gross rectal bleeding) and body weight loss (0, no body weight loos; 1, 1-5% body weight loss; 2, 6-10% body weight loss; 3, 11-20% body weight loss; 4, >20% body weight loss).
At the end of induction with TNBS (day 7), the animals were euthanized, dissected and the entire colon was quickly removed and gently cleared of feces.
The entire colon was weighed, and the total length was measured. Colon weight gain and shortening is an indirect marker of inflammation. As expected, colon weight induced by TNBS increased to 336.8±25.15 mg. […] The TNBS-induced colon weight increasement were improved by Cpd. 4 treatment (202.4±3.95 mg for 50 mg/kg Cpd. 4 preventive therapy and 214.4±5.17 mg for 50 mg/kg Cpd. 4 therapeutic therapy) (FIG. 2).
At the end of induction with TNBS, the animals were euthanized, and blood was collected immediately by the heart punctures and used for whole blood cell analysis.
At the end of the study (day 7), the cell suspensions from sham control, model control and Cpd. 4 therapeutic treatment groups were obtained from mesenteric lymph nodes (MLN). Cells were stained with the following florescence-labelled antibodies: APC-Cy7-conjugated anti-mouse CD45, BV510-conjugated anti-mouse CD3e, AF700-conjugated anti-mouse CD8a, BUV395-conjugated anti-mouse CD4, BV421-conjugated anti-mouse CD25, FITC-conjugated anti-mouse Foxp3, BV650-conjugated anti-mouse IFN-γ, BV786-conjugated anti-mouse IL-17A, BB700-conjugated anti-mouse TNF-α, APC-conjugated anti-mouse B220, BV395-conjugated anti-mouse CD3e, BV605-conjugated anti-mouse CD11b, BB700-conjugated anti-mouse CD11c, AF488-conjugated anti-mouse MHCII, BV421-conjugated anti-mouse NK1.1, BV510-conjugated anti-mouse Ly6G, PE-Cy7-conjugated anti-mouse CD107a and PE-CF594-conjugated anti-mouse F4/80. All cells were primarily gated on single and live lymphocytes based on forward scatter (FCS), side scatter (SSC) and live/dead staining buffer. Samples were analyzed on a flow cytometer (BD LSRFortessa) to count the percentage of each subtype of lymphocytes. […]

[3] = tested on: LPS inhalation induced lung neutrophils infiltration model; experiment: LPS inhalation induced neutrophils infiltration model in C57BL/6 mice; conditions: Cpd. 4 50 mg/kg oral each day, Cpd. X 50 mg/kg iv twice a week, Cpd. XI 12 mg/kg iv twice a week, week 4-10, compared with Vehicle
Description: C57BL/6 mice (6-8 weeks old) were obtained from Shanghai LC Laboratory Animal Co. Ltd. Animals, housed and handled in a temperature-controlled environment with a 12-h light/12-h dark cycle. A total of 60 female C57BL/6J mice will be modeled by atomization inhalation LPS 3 times a week for 10 weeks (adjustments may be made according to animal health status). LPS concentration is at 0.7 mg/mL. On each day of challenge, animals in G1 will receive aerosol inhalation of PBS and intravenous injection of Vehicle; animals in G2 will receive aerosol inhalation of LPS and intravenous injection of Vehicle; animals in G3 will be given aerosol inhalation of LPS and intravenous injection of 50 mg/kg Cpd. X twice a week (D1/4) from week 4-10; animals in G4 will be given aerosol inhalation of LPS and intravenous injection of 12 mg/kg Cpd.XI twice a week (D1/4) from week 4-10; animals in G5 will be given aerosol inhalation of LPS and oral administration of 50 mg/kg Cpd. 4 each day from week 4-10; animals in G6 will be given aerosol inhalation of LPS and oral administration of dexamethasone 1 hour before each challenge. Lungs will be gently lavaged via the tracheal cannula with 0.8 mL of PBS containing 1% BSA and 0.6 mM EDTA 48 hr after the last LPS exposure. The procedure will be repeated twice with 0.8 mL of PBS containing 1% BSA and 0.6 mM EDTA. The bronchoalveolar lavage fluid (BALF) will be centrifuged at 300×g for 5 min at 4° C., the cell pellet will be resuspended in 1.5 mL PBS. Total numbers of neutrophils in BALF will be counted using a hemocytometer.

OVA induced asthma model = experiment: OVA (ovalbumin) induced asthma model in Balb/cA mice
From the text: Ovalbumin (OVA)-sensitized and challenged BALB/c mice are widely used as an asthma model and are characterized by high levels of serum IgE, airway inflammation, epithelial hypertrophy, goblet cell hyperplasia, and AHR, which are similar to the features observed in human allergic asthma.
Female Balb/cA mice (8 weeks old) were obtained from Shanghai Jihui Laboratory Animal Co. Ltd. Animals were housed and handled in a temperature-controlled environment with a 12-h light/12-h dark cycle. A total of 66 mice were assigned to 6 groups by randomization based on body weight.
Mice in Group 2 are intraperitoneally immunized with OVA (25 μg) emulsified in Imject alum (2.0 mg of Al[OH]3) on day 1. During this sensitization phase, the mice produce anti-OVA IgE antibodies, which bind IgE receptors on mast cells. After this sensitization, the mice are intratracheally challenged with OVA from day 8 today 14, resulting in OVA cross-linked IgE on mast cells and leading to degranulating mast cells. Mice then develop clinical features of asthma. The mice in the Group 1 normal control group were sensitized and challenged with […] (without OVA).
Mice in Group 1 and Group 2 were treated with vehicle for 7 days (po, qd, from day 8 to day 14). Mice in Group 3 were treated with 50 mg/kg Cpd. X for 8 days (iv, biw, day 1 and day 4). Mice in Group 4 were treated with 30 mg/kg Cpd. 4 for 7 days (po, qd, from day 8 to day 14). Mice in Group 5 were treated with 100 mg/kg Cpd. 4 for 7 days (po, qd, from day 8 to day 14). 3 mg/kg dexamethasone was used as positive control which was orally administered to mice in Group 6 for 7 days (qd, from day 8 to day 14). The protocols and procedures involving the care and use of animals were approved by the Institutional Animal Care and Use Committee (IACUC) at KCI (Suzhou, China).
Airway responsiveness was determined invasively based on lung resistance.
After challenge with aerosolized methacholine. Briefly, mice were challenged with methacholine aerosol in increasing concentrations (0, 6.25, 12.5, and 25 mg/mL in saline) on day 13 by using the noninvasive pulmonary function instrument. Data on lung resistance were continuously collected, and mean values were selected to express changes in airway function and regarded as one form of inflammation expression. Data are presented as the airway stenosis index (penh).
Twenty-four hours after the final OVA challenge (on day 15), mice were killed, and BAL cells were collected by means of slow injection of ice-cold PBS into the trachea, which was repeated 3 times. Numbers of cells in BAL fluid were counted with a chamber. Number of eosinophils in a total of 100 cells was counted under a microscope. Results are expressed as percentage of eosinophils of BAL fluid.
Twenty-four hours after the final OVA challenge (on day 15), mice were killed, and the serum was collected. The OVA-specific IgE levels were measured with the method of enzyme linked immunosorbent assay (ELISA) according to manufacturer protocol.
Twenty-four hours after the final OVA challenge (on day 15), mice were killed, and the lung tissue samples were collected and fixed in 4% paraformaldehyde. Then, they were embedded in paraffin and cut into […] sections for histopathological analysis. Lung sections were then stained with hematoxylin and eosin (H&E) to calculate the inflammatory changes. The histopathological score was evaluated microscopically in a blinded manner. Five arbitrarily selected fields of each mouse were photographed with an optical microscope and the images were determined and analyzed in detail. […]

[4] = Cpd. 4 preventive and therapeutic
[5] = day 15, Cpd. 4 30 and 100 mg/kg po qd, Cpd. X 50 mg/kg iv biw, dexamethasone 3 mg/kg po qd, compared with Vehicle

C[C@@H]1CCN(C(=O)CC#N)C[C@@H]1N(C)c1ncnc2[nH]ccc12 [tofacitinib, reference compound]
PASI score (Psoriasis Area Severity Index) [1]: significantly lower PASI

Nc1ccc(O)c(C(=O)O)c1 [mesalamine, Mesalamine, reference compound]
disease activity index (DAI), clinical score of IBD ([2]; Cpd. 4 preventive (day −1 to day 6) and therapeutic (day 1 to day 6) regimens): significantly lowered DAI
colon length (in words) [2, 4]: significantly increased the colon length
colon weight (in words) [2, 4]: significantly reduced the colon weight

Cc1c(S(C)(=O)=O)c(-c2cc(F)cc(N3CCN(c4ccc(NS(=O)(=O)c5ccc(N[C@H](CCN6CCC(C(=O)O)CC6)CSc6ccccc6)c(S(=O)(=O)C(F)(F)F)c5)cc4)CC3)c2)c(-c2ccc(Cl)cc2)n1C(C)C [Cpd. XI]
BALF neutrophils (infiltration in lung) [3]: significantly reduced
BALF neutrophils (infiltration in lung) ([3]; listed as Cpd.XI): significantly reducing the BALF neutrophils

Cc1c(S(C)(=O)=O)c(-c2cc(F)cc(N3CCN(c4ccc(NS(=O)(=O)c5ccc(N[C@H](CCN6CCC(C(=O)OCCCP(=O)(O)O)CC6)CSc6ccccc6)c(S(=O)(=O)C(F)(F)F)c5)cc4)CC3)c2)c(-c2ccc(Cl)cc2)n1C(C)C [Cpd. X]
pathological score in lung tissues (H&E) (OVA induced asthma model; 50 mg/kg iv biw, day 15, vehicle 4.08±0.23): 2.58±0.15
pathological score in lung tissues (in words) (OVA induced asthma model; Cpd. 4 and Cpd. X, compared with Vehicle): significantly ameliorated
percentage of eosinophils in BALF (OVA induced asthma model; [5]): downregulated markedly; also recorded: significantly downregulated
serum OVA-specific IgE (ELISA) (OVA induced asthma model; [5]): significantly reduced
airway stenosis index (penh), airway hyper-responsiveness (AHR) (OVA induced asthma model; methacholine challenge day 13, Cpd. 4 30 and 100 mg/kg po qd day 8-14, Cpd. X 50 mg/kg iv biw, dexamethasone 3 mg/kg po qd, compared with Vehicle): significant inhibitory activity; also recorded: significantly reduced
BALF neutrophils (infiltration in lung) [3]: significantly reducing the BALF neutrophils; also recorded: significantly reduced
